Consider seven compounds from ChEMBL document CHEMBL2010683, “Discovery of the first small molecule inhibitor of human DDX3 specifically designed to target the RNA binding site: towards the next generation HIV-1 inhibitors” (Bioorg Med Chem Lett, 2012).

In data set [1] the target is T1, ATP-dependent RNA helicase DDX3X (Homo sapiens, UniProt O00571). As to the kind of experiment: Inhibition of human recombinant DDX3 helicase activity expressed in Escherichia coli assessed as conversion of a 6-FAM-labeled double stranded RNA in to single stranded nucleic acid by laser scanning densitometric analysis.
Target sequence in this assay (O00571 whole entry): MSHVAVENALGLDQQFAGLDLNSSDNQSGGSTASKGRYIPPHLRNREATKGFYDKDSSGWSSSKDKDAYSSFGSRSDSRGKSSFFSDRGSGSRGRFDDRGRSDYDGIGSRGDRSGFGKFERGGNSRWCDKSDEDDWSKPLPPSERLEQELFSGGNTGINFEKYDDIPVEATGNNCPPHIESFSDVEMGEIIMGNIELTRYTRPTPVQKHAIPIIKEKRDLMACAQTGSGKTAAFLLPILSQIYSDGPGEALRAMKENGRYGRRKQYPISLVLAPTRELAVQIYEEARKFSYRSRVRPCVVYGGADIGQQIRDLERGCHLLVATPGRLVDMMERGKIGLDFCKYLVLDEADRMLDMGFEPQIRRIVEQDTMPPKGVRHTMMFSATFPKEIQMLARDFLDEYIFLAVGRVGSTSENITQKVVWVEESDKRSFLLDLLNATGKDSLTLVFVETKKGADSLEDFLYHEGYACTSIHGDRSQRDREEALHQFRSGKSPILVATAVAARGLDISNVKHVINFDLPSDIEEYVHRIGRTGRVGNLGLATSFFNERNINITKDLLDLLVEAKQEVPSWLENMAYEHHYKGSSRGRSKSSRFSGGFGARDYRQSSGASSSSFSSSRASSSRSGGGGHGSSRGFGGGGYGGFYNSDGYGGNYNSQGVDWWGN
The target of data set [2] is T2, ATP-dependent RNA helicase DDX1 (Homo sapiens, UniProt Q92499).
T2 sequence (Q92499 whole entry): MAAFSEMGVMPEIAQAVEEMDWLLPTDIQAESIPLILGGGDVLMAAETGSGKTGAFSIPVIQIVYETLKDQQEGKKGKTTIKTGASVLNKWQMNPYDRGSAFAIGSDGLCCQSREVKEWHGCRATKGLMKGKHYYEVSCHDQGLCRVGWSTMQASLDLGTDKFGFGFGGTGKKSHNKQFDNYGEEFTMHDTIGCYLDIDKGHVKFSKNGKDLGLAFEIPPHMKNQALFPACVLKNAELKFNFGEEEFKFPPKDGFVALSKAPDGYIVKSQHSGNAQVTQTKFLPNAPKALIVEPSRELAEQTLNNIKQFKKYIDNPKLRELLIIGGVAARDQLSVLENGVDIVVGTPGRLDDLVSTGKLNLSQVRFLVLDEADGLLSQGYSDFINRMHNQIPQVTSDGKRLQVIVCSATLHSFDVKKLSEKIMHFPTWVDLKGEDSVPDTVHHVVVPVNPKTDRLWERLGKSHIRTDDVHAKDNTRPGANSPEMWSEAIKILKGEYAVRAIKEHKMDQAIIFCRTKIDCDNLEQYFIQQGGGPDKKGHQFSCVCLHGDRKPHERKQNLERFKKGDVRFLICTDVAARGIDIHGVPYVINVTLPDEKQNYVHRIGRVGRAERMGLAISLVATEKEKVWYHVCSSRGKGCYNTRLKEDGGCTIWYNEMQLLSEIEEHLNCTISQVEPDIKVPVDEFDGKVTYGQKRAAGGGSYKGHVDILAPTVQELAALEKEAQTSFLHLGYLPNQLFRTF
As to the kind of experiment: Inhibition of human recombinant DDX1 helicase activity expressed in Escherichia coli assessed as conversion of a 6-FAM-labeled double stranded RNA in to single stranded nucleic acid by laser scanning densitometric analysis.

A short description of data set [3]: Inhibition of Hepatitis C virus NS3 helicase expressed in Escherichia coli assessed as conversion of a 6-FAM-labeled double stranded RNA in to single stranded nucleic acid by laser scanning densitometric analysis. The arrangement: species or system Hepacivirus hominis.
The target in data set [4] is T1, ATP-dependent RNA helicase DDX3X. In words: Inhibition of human recombinant DDX3 ATPase activity expressed in Escherichia coli assessed as [gamma-32P] ATP hydrolysis after 5 mins by densitometric analysis.
Target sequence in this assay (O00571 whole entry): as the sequence (O00571 whole entry) above
Data set [5] concerns Human immunodeficiency virus 1. In words: Antiviral activity against multidrug-resistant HIV1 infected in phytohemagglutininin-P stimulated human PBMC cells assessed as inhibition of viral replication after 72 hrs post infection. Format: functional, organism-based. The note with it: Human immunodeficiency virus 1, PBMC.
Data set [6] can be described thus: Cytotoxicity against human PBMC cells assessed as cell viability after 72 hrs by MTS assay. Type of data set: cell-based. For orientation: Tetrazolium assays rely on reduction of a dye to a coloured formazan, in cell work by metabolically active cells.
Data set [7] can be described thus: Selectivity ratio of CC50 for human PBMC cells to EC50 for multidrug-resistant HIV1 infected in phytohemagglutininin-P-stimulated human PBMC cells. Format: ADME, cell-based. The note with it: read-out: Ratio CC50/EC50.
The target of data set [8] is T1, ATP-dependent RNA helicase DDX3X.
Target sequence in this assay (O00571 2-662 limits assumed): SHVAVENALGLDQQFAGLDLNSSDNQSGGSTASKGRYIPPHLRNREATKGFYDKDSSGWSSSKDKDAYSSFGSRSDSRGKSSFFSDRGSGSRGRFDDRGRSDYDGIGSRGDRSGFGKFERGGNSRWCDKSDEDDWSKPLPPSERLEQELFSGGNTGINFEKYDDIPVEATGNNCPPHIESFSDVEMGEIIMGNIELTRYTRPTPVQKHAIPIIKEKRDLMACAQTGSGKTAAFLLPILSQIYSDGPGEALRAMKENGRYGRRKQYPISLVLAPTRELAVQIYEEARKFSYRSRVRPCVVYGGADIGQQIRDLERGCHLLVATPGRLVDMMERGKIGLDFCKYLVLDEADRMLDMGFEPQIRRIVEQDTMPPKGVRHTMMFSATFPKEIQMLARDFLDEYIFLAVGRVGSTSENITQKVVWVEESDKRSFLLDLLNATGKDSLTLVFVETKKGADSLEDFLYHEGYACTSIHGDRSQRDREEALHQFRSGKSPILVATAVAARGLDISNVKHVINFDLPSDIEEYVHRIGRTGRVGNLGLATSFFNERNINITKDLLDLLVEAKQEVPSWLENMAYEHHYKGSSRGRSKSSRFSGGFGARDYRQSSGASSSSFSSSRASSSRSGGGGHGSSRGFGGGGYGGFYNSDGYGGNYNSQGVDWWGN
Description: Competitive inhibition of human recombinant DDX3 expressed in Escherichia coli using 25 nM double strand 18/36mer RNA substrate by PAGE analysis
For data set [9] the target is unchanged. The source holds these as a separate data set.
Target sequence in this assay (O00571 2-662 limits assumed): as above
Description: Competitive inhibition of human recombinant DDX3 expressed in Escherichia coli using 50 nM double strand 18/36mer RNA substrate by PAGE analysis
Data set [10] has the same target. The source holds these as a separate data set.
Target sequence in this assay (O00571 2-662 limits assumed): as above
Description: Competitive inhibition of human recombinant DDX3 expressed in Escherichia coli using 100 nM double strand 18/36mer RNA substrate by PAGE analysis

The structures appear in SMILES notation.

The term IC50 denotes the point on the concentration scale where inhibition reaches its midpoint. Regarding `Cc1[nH]c2ccccc2c1C1=CC(c2ccccc2)=NN=C(c2ccccc2)C1`, the half-maximal inhibitory concentration (IC50) in data set [1] was 6 µM; in data set [2] it was over 500 µM; in data set [3], over 500 µM; in data set [4], over 1000 µM.
Regarding `Nc1cccc(NC(=O)Nc2cccc(N)c2)c1`, the IC50 was over 500 µM in data set [2], over 500 µM in [3] and over 1000 µM in data set [4].
The EC50 is the concentration that produces a half-maximal response. In general, CC50 refers to the concentration giving 50% cytotoxicity. Take `Cc1ccccc1NC(=O)Nc1cccc([N+](=O)[O-])c1`: the concentration for half-maximal inhibition (IC50) is over 500 µM in [2], over 500 µM in data set [3] and 20 µM in [4]. Further, the EC50 in data set [5] is 10 µM. Besides, in data set [6], the CC50 at 72 h was 100 µM. Besides, the selectivity ratio in data set [7] came to 10.
As for `O=C(Nc1cccc([N+](=O)[O-])c1)Nc1cccc([N+](=O)[O-])c1`, the IC50 in data set [2] is over 500 µM; in data set [3] it was over 500 µM; in data set [4] it was over 1000 µM.
For `Cc1ccccc1NC(=O)Nc1cccc(NC(=O)Nc2ccccc2C)c1`, the 50% inhibitory concentration (IC50) in data set [1] was 65 µM; in data set [2], over 500 µM; in data set [3], over 500 µM; in data set [4], 17 µM.
In the case of `O=C(Nc1ccc(-c2nc3ccccc3[nH]2)cc1)c1cc2ccccc2o1`, the IC50 in data set [1] is 42 µM; in [2] it was over 500 µM; in data set [3] it was over 500 µM; in data set [4] it was over 1000 µM.
For `Cc1ccccc1NC(=O)Nc1cccc(N)c1`, the 50% inhibitory concentration (IC50) in data set [1] is 5 µM; in data set [2], over 500 µM; in data set [3], over 500 µM; in data set [4], 40 µM. Further, in data set [5], the EC50 worked out at 15 µM. In addition, the CC50 at 72 h in [6] came out at 100 µM. In data set [7], the selectivity ratio is 10. Besides, the ID50 was 4.5 µM in data set [8], 435 µM in data set [9] and 950 µM in data set [10].
